Patent US20070128270A1
≈ marks a conversion by molar mass, not a printed value.

Legend:
[1] = Accelerated stability of capsules, HPLC potency and impurities; type: physicochemical; conditions: Initial
Procedure: The accelerated stability of the capsules of Examples 1 and 2 was studied. The capsules were packaged in HDPE bottles and stored at 40° C./75% RH and under ICH option 2 light condition. The samples were assayed by HPLC for potency and impurities and by dissolution apparatus. […] No change in dissolution was also observed under all conditions.

physchem = type: physicochemical
Text: In fact, according to a preferred embodiment, the at least one surfactant is a blend of surfactants, more preferably a blend of sodium lauryl sulfate and polysorbate 80 (Tween 80). In a particularly preferred embodiment, the pharmaceutically acceptable additives further comprise at least one solubilizer. Preferably the solubilizer is povidone.

- Impurity (%) RRT: 1.06 [1]: <0.05%
- Impurity (%) RRT: 1.45 [1]: 0.13%
- Impurity (%) RRT: 1.79 [1]: 0.05%
- Impurity (%) RRT: 1.84 [1]: 0.07%
- Strength (%) [1]: 99.2%
- solubility in aqueous medium at gastrointestinal pHs (physchem): insoluble
- solubility (physchem; Solubility): 0.02 mg/mL (≈ 44.8 µM)
SMILES: CNC(=O)c1c(-c2ccc(F)cc2)oc2cc(N(CCO)S(C)(=O)=O)c(C3CC3)cc12
